Tests used:
Format in all cases: in vivo
Barnyardgrass = test: Pre-emergent herbicidal activity (Table II); conditions: 2-3 weeks; note: ranges in brackets are in %
Method in brief: (§1)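 Seeds or vegetative propagules were sown on compacted top soil in pans and covered with a soil layer mixed with a known amount of active ingredient, applied in solvent or as wettable powder suspension. Pans were kept on a greenhouse bench, watered from below, and injury rated on a fixed scale about 2-3 weeks later.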

Canada Thistle = test: Pre-emergent herbicidal activity (Table II); conditions: 2-3 weeks; note: ranges in brackets are in %
Method in brief: as §1

Cocklebur = test: Pre-emergent herbicidal activity (Table II); conditions: 2-3 weeks; note: ranges in brackets are in %
Method in brief: as §1

Downy Brome = test: Pre-emergent herbicidal activity (Table II); conditions: 2-3 weeks; note: ranges in brackets are in %
Method in brief: as §1

Johnsongrass = test: Pre-emergent herbicidal activity (Table II); conditions: 2-3 weeks; note: ranges in brackets are in %
Method in brief: as §1

Lambsquarters = test: Pre-emergent herbicidal activity (Table II); conditions: 2-3 weeks; note: ranges in brackets are in %
Method in brief: as §1

Morningglory = test: Pre-emergent herbicidal activity (Table II); conditions: 2-3 weeks; note: ranges in brackets are in %
Method in brief: as §1

Quackgrass = test: Pre-emergent herbicidal activity (Table II); conditions: 2-3 weeks; note: ranges in brackets are in %
Method in brief: as §1

Smartweed = test: Pre-emergent herbicidal activity (Table II); conditions: 2-3 weeks; note: ranges in brackets are in %
Method in brief: as §1

Velvetleaf = test: Pre-emergent herbicidal activity (Table II); conditions: 2-3 weeks; note: ranges in brackets are in %
Method in brief: as §1

Yellow Nutsedge = test: Pre-emergent herbicidal activity (Table II); conditions: 2-3 weeks; note: ranges in brackets are in %
Method in brief: as §1

Rice = test: Percent inhibition in transplanted rice (Table VI)
Text: (§2) In Table VI, data is presented showing the effect of said compound on the major Asian rice weeds Echinochloa crusgalli (EC), Monochoria vaginalis (MV), Cyperus serotinus (CS), Eleocharis kuroguwai (EK) and Sagittaria trifolia (ST) in transplanted rice at rates within the range of 0.25-2.0 lb/A (0.28-2.24 kg/ha); observations were made 18 days after treatment.

major Asian rice weeds = test: Selective control of weeds in transplanted rice (summary of Table VI)
Text: as §2

Question: How did the Herbicidal rating (Barnyardgrass; 5.6 kg/ha) turn out when `CC1=C(N(Cn2c(=O)sc3ccccc32)C(=O)CCl)C(C)CCC1` (centres unmarked) [Example 1, N-(2,6-dimethyl-1-cyclohexen-1-yl)-N-[(2-oxo-3(2H)-benzothiazolyl)methyl]-2-chloroacetamide] was run?
Answer: The Herbicidal rating was 3 (75-100).

Question: What about the Herbicidal rating (Barnyardgrass; 11.0 kg/ha) of the same compound?
Answer: The Herbicidal rating was 3 (75-100).

Question: And the Herbicidal rating (Canada Thistle; 5.6 kg/ha)?
Answer: The Herbicidal rating was 0 (0-24).

Question: What about the Herbicidal rating (Canada Thistle; 11.0 kg/ha) of the same compound?
Answer: Its Herbicidal rating is 0 (0-24).

Question: What about the Herbicidal rating (Cocklebur; 5.6 kg/ha) of the same compound?
Answer: Its Herbicidal rating is 1 (25-49).

Question: What about the Herbicidal rating (Cocklebur; 11.0 kg/ha) of the same compound?
Answer: Its Herbicidal rating is 0 (0-24).

Question: And the Herbicidal rating (Downy Brome; 5.6 kg/ha)?
Answer: The Herbicidal rating was 2 (50-74).

Question: What about the Herbicidal rating (Downy Brome; 11.0 kg/ha) of the same compound?
Answer: Its Herbicidal rating is 2 (50-74).

Question: And the Herbicidal rating (Johnsongrass; 5.6 kg/ha)?
Answer: Its Herbicidal rating is 0 (0-24).

Question: And the Herbicidal rating (Johnsongrass; 11.0 kg/ha)?
Answer: Its Herbicidal rating is 3 (75-100).

Question: What about the Herbicidal rating (Lambsquarters; 5.6 kg/ha) of the same compound?
Answer: Its Herbicidal rating is 1 (25-49).

Question: What about the Herbicidal rating (Lambsquarters; 11.0 kg/ha) of the same compound?
Answer: Its Herbicidal rating is 0 (0-24).

Question: What about the Herbicidal rating (Morningglory; 5.6 kg/ha) of the same compound?
Answer: Its Herbicidal rating is 2 (50-74).

Question: And the Herbicidal rating (Morningglory; 11.0 kg/ha)?
Answer: Its Herbicidal rating is 2 (50-74).

Question: What about the Herbicidal rating (Quackgrass; 5.6 kg/ha) of the same compound?
Answer: Its Herbicidal rating is 2 (50-74).

Question: What about the Herbicidal rating (Quackgrass; 11.0 kg/ha) of the same compound?
Answer: The Herbicidal rating was 2 (50-74).

Question: And the Herbicidal rating (Smartweed; 5.6 kg/ha)?
Answer: Its Herbicidal rating is 1 (25-49).

Question: What about the Herbicidal rating (Smartweed; 11.0 kg/ha) of the same compound?
Answer: Its Herbicidal rating is 3 (75-100).

Question: And the Herbicidal rating (Velvetleaf; 5.6 kg/ha)?
Answer: Its Herbicidal rating is 0 (0-24).

Question: And the Herbicidal rating (Velvetleaf; 11.0 kg/ha)?
Answer: The Herbicidal rating was 0 (0-24).

Question: What about the Herbicidal rating (Yellow Nutsedge; 5.6 kg/ha) of the same compound?
Answer: Its Herbicidal rating is 0 (0-24).

Question: And the Herbicidal rating (Yellow Nutsedge; 11.0 kg/ha)?
Answer: Its Herbicidal rating is 2 (50-74).

Question: What about the inhibition at 280 g/ha (Rice; Oryza sativa, 432 h, transplanted rice, 0.28 kg/ha, 18 days after treatment) of the same compound?
Answer: The inhibition at 280 g/ha was 0%.

Question: What about the inhibition at 560 g/ha (Rice; Oryza sativa, 432 h, transplanted rice, 0.56 kg/ha, 18 days after treatment) of the same compound?
Answer: Its inhibition at 560 g/ha is 0%.

Question: What about the inhibition at 1120 g/ha (Rice; Oryza sativa, 432 h, transplanted rice, 1.12 kg/ha, 18 days after treatment) of the same compound?
Answer: Its inhibition at 1120 g/ha is 0%.

Question: What about the inhibition at 2240 g/ha (Rice; Oryza sativa, 432 h, transplanted rice, 2.24 kg/ha, 18 days after treatment) of the same compound?
Answer: The inhibition at 2240 g/ha was 10%.

Question: And the “rice injury (rice safety)” value (Rice; at 2.24 kg/ha or more)?
Answer: Its value is ≤ 15%.

Question: And the “efficacy as a rice herbicide” value (major Asian rice weeds)?
Answer: Its value is “particularly efficacious as a rice herbicide”.

Question: And the selective weed control (major Asian rice weeds; rates as low as 0.28 kg/ha)?
Answer: The selective weed control was “selectively controlled all weeds in the test, except Sagittaria trifolia”.

From US4731451A, “N-((2-oxo-3(2H)benzothiazolyl)methyl)-2-chloroacetanilides” (Monsanto Company, priority 1980, dated 1988)
